From patent publication US9956291B2, “Nanoformulation and methods of use of thyroid receptor beta1 agonists for liver targeting” (priority 2012, dated 2018)

Key:
[1] = tested on: LDLR; test: Test for LDLR up-regulation in transfected HEK-293 cells; format: cell-based, human
Procedure: (§1) The expression vector of human LDLR was constructed under the control of the cytomegalovirus promoter-enhancer (pCMV-LDLR). These constructs were used to transiently transfect mammalian cells, and cells were subjected to SDS-PAGE and immunoblot analysis using an LDLR antibody. […] Using this assay, compounds were tested for their ability to reduce the degradation of the LDLR. HEK-293 cells grown in 96-well plates overnight and transfected with LDLR were used. Compounds dissolved in DMSO or vehicle were added to the culture media, and incubated for 24-48 hours. The cells were then lysed. Both cell lysate and supernatant are subjected to quantitation using the above immunoassay. Compounds that increase the up-regulation of LDLR were selected. A similar assay was implemented using the HepG2 cells, since these cells express the LDLR endogenously.

[2] = tested on: LDLR; test: Test for LDLR up-regulation in HepG2 cells (endogenous LDLR); format: cell-based, human
Procedure: as §1

[3] = tested on: high fat diet mice; test: Nutritionally-induced hypercholesterolemia model (high fat diet mice); format: in vivo
Procedure: Mice were fed a high fat diet (TD.06414, Harlan Research Diet, Inc., Indianapolis, Ind.) that provides […] from fat sources increased total cholesterol. […] Male C57BL/6 mice were fed either a commercial chow diet (Prolab RMH 3000, PMI feeds, St. Louis, Mo.) to serve as a negative control, or a high fat diet (TD.06414). Plasma was collected once weekly to monitor the level of LDL-C, total cholesterol, HDL-C, and triglyceride. […] One group was treated with vehicle, and the other groups are treated with TRβ1 agonist compounds versus its Nano-targeted ones at different doses.
High-fat diet (HFD)-induced dyslipidemia in mice. FIG. 12 depicts dose-ranging of Chitosan-PLGA NP-encapsulated GC-1 and conjugated with Glycyrrhetinic acid versus un-encapsulated GC-1 for lowering total cholesterol in HFD mice, in accordance with embodiments of the present invention.

[4] = cited from earlier work
[5] = tested on: cartilage; conditions: dogs, up to 12 months; cited from earlier work
[6] = in vivo; cited from earlier work
[7] = moderately overweight and hypercholesterolemic subjects, two weeks

SMILES | LDLR up-regulation [1] | LDLR up-regulation [2] | reduction of serum total cholesterol ([3]; 0.1 mg/Kg daily for 6 days) | effects on the heart [4, 7] | serum total and LDL cholesterol, apoB levels [4, 7] | cartilage damage [5] | serum cholesterol and triglyceride [6] | dose of maximum effect on total cholesterol (toward normal regular diet levels) ([3]; IP daily, week 1 and week 2) | lowering of total cholesterol ([3]; IP daily, week 1 and week 2, dose-ranging) | lowering serum cholesterol and triglyceride ([4]; Phase I clinical trial)
CC(C)c1cc(Oc2c(Br)cc(NC(=O)CC(=O)O)cc2Br)ccc1O [KB-2115] | None of the TR beta agonists including GC-1, KB-2115 or their nanoformulations resulted in any significant changes | None of the TR beta agonists including GC-1, KB-2115 or their nanoformulations resulted in any significant changes | 60-80% | without detectable effects on the heart | reduced | Cartilage damage was observed | lower serum cholesterol and triglyceride |  |  | 
Cc1cc(OCC(=O)O)cc(C)c1Cc1ccc(O)c(C(C)C)c1 [GC-1] | None of the TR beta agonists including GC-1, KB-2115 or their nanoformulations resulted in any significant changes | None of the TR beta agonists including GC-1, KB-2115 or their nanoformulations resulted in any significant changes |  |  |  |  | lower serum cholesterol and triglyceride | 1.0 mg/kg | dose-dependent lowering of total cholesterol | effective in lowering serum cholesterol and triglyceride
